Assay results taken from patent publication US20230219965A1 (KSQ Therapeutics, Inc., priority 2020, published 2023).

Molecular target: USP1/UAF1 enzyme (Homo sapiens, UniProt O94782)
Assay: USP1/UAF1 deubiquitination assay (ubiquitin-rhodamine 110 substrate)
Assay type: biochemical
Settings: read-out: USP1 IC50 (Ub-Rho)
Protocol: Certain Compounds of the Disclosure were assessed for USP1/UAF1 activity in a Ubiquitin Rhodamine assay modified from those described previously.
Deubiquitinase activity was measured using ubiquitin-rhodamine 110 as a substrate. Cleavage of the amide bond between rhodamine and the c-terminal glycine of ubiquitin yields an increase in fluorescence signal. The assay was conducted in 20 μl total volume of assay buffer (50 mM Tris-HCl, pH 7.8, 0.5 mM EDTA, 0.01% Bovine Serum Albumin, 1 mM DTT, 0.01% Tween-20), and 0.05 nM USP1/UAF1 enzyme. Reaction was initiated by addition of 150 nM Ubiquitin-rhodamine (Boston Biochem) substrate.
Compounds of the Disclosure, dissolved in DMSO were tested in dose response format, beginning at […].
The example compounds listed below were added to enzyme/assay buffer mix and incubated 10 min. Substrate mix was added, and reaction mix was read in kinetic mode for 30 min at Ex480/Em540 and IC50 response curves were plotted.
Data for all assay formats was calculated as percent inhibition compared with control wells. Percent inhibition was calculated using the following equation: % inhibition=100×[1−(X−min)/(max−min)], where X is the raw data readout, min is the average of the no enzyme control wells (n=32), max is the average of the DMSO control well (n=32). IC50 values were calculated using the standard four parameter curve fitting algorithm in either Prism GraphPad (La Jolla, Calif.) software, or Collaborative Drug Discovery (Burlingame, Calif.) CDD Vault. See Chem. Biol. 20(1): 55-62 (Jan. 24, 2013); Bioorg. Med. Chem. Lett. 23(20): 5660-5666 (Oct. 15, 2013).

Sequence of USP1/UAF1 enzyme (O94782 whole entry): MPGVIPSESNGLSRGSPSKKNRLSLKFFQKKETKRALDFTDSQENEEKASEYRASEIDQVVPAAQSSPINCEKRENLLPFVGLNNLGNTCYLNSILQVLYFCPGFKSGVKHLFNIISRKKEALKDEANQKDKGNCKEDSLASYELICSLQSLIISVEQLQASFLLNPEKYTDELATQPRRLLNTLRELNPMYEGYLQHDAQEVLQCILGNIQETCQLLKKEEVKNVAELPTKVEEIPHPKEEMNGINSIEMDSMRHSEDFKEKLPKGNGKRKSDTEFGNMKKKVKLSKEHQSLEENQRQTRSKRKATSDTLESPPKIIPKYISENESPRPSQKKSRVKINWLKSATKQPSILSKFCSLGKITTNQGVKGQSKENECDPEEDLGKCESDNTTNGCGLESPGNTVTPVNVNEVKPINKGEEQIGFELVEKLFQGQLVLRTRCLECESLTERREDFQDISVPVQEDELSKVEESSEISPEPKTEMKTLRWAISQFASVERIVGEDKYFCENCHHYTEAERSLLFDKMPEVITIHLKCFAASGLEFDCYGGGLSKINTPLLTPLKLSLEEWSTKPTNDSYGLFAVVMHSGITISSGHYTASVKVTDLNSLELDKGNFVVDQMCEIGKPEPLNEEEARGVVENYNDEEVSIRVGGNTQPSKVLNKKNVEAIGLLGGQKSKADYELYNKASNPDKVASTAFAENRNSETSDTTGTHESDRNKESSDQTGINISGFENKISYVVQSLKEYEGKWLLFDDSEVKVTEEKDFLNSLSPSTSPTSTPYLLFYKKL
Sequence of USP1/UAF1 enzyme (Q8TAF3 whole entry partner): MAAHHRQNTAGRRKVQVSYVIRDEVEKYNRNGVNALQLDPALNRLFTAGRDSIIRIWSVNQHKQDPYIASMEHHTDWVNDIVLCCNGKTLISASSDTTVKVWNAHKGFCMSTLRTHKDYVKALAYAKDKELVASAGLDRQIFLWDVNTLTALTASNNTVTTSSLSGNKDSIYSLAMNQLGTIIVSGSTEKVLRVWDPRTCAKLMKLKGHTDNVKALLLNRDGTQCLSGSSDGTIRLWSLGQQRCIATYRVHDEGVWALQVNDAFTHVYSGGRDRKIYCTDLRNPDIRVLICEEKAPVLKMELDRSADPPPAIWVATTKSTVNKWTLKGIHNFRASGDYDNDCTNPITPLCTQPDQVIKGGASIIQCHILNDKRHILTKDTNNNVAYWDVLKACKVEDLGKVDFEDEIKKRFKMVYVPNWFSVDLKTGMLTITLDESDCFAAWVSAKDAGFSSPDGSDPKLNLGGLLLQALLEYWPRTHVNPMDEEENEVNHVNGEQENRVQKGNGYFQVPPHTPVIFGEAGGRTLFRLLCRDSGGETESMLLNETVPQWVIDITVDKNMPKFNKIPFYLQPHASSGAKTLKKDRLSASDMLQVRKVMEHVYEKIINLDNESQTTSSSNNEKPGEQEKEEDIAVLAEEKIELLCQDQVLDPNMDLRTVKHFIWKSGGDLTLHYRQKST

Structure (SMILES)	IC50 [nM]
COc1cnn(C(C)C)c1-c1cc2n(n1)CCC(=O)N2Cc1ccc(-c2nc(C(F)(F)F)cn2C(C)C)cc1 [Example 152]	100 to 500
CCn1cc(C(F)(F)F)nc1-c1ccc(CN2C(=O)CCn3nc(-c4c(OC)cnn4C(C)C)cc32)cc1 [Example 155]	100 to 500
CCn1cc(C(F)(F)F)nc1-c1ccc(CN2C(=O)CCn3nc(-c4c(C5CC5)cnn4C(C)C)cc32)cc1 [Example 161]	100 to 500
CCn1cc(C(F)(F)F)nc1-c1ccc(CN2C(=O)CCn3nc(-c4c(Cl)cnn4CCO)cc32)cc1F [Example 163]	100 to 500
CCn1cc(C(F)(F)F)nc1-c1ccc(CN2C(=O)CCn3nc(-c4c(OC)ncnc4C4CC4)nc32)cc1OC [Example 185]	100 to 500
CCn1cc(C#N)nc1-c1ccc([C@H](C)N2C(=O)CCn3nc(-c4c(OC)ncnc4C4CC4)nc32)cc1 [Example 198]	> 500
CCn1cc(C#N)nc1-c1ccc([C@@H](C)N2C(=O)CCn3nc(-c4c(OC)ncnc4C4CC4)nc32)cc1 [Example 199]	100 to 500
CNCc1cc(C(F)(F)F)nn1-c1ccc(CN2C(=O)CCn3nc(-c4c(Cl)cnn4C(C)C)cc32)cc1 [Example 224, 2-(4-chloro-1-isopropyl-1H-pyrazol-5-yl)-4-(4-(5-((methylamino)methyl)-3-(trifluoromethyl)-1H-pyrazol-1-yl)benzyl)-6,7-dihydropyrazolo[1,5-α]pyrimidin-5(4H)-one]	100 to 500
CNCc1cc(C(F)(F)F)nn1-c1ccc(CN2C(=O)CCn3nc(-c4c(OC)ncnc4C4CC4)cc32)cc1 [Example 225, 2-(4-cyclopropyl-6-methoxypyrimidin-5-yl)-4-(4-(5-((methylamino)methyl)-3-(trifluoromethyl)-1H-pyrazol-1-yl)benzyl)-6,7-dihydropyrazolo[1,5-a]pyrimidin-5(4H)-one]	100 to 500
CC(C)n1ncc(Cl)c1-c1cc2n(n1)CCC(=O)N2Cc1ccc(OCc2ccccn2)cc1 [Example 226, 2-(4-chloro-1-isopropyl-1H-pyrazol-5-yl)-4-(4-(pyridin-2-ylmethoxy)benzyl)-6,7-dihydropyrazolo[1,5-α]pyrimidin-5(4H)-one]	100 to 500
CCn1cc(C(F)(F)F)nc1-c1ccc(CN2C(=O)CCn3nc(-c4c(Cl)cnn4C(C)CO)cc32)cc1 (stereo not drawn) [Example 227, 2-(4-chloro-1-(1-hydroxypropan-2-yl)-1H-pyrazol-5-yl)-4-(4-(1-ethyl-4-(trifluoromethyl)-1H-imidazol-2-yl)benzyl)-6,7-dihydropyrazolo[1,5-α]pyrimidin-5(4H)-one]	100 to 500
CC(C)n1ncc(Cl)c1-c1cc2n(n1)CCC(=O)N2Cc1ccc(-n2ccc(N3CCOCC3)n2)cc1 [Example 230, 2-(4-chloro-1-isopropyl-1H-pyrazol-5-yl)-4-(4-(3-morpholino-1H-pyrazol-1-yl)benzyl)-6,7-dihydropyrazolo[1,5-α]pyrimidin-5(4H)-one]	> 500
CCn1cc(C(F)(F)F)nc1-c1ccc(NC2CCCn3nc(-c4c(Cl)cnn4C(C)C)nc32)cc1 (stereo not drawn) [Example 256, 2-(4-chloro-1-isopropyl-1H-pyrazol-5-yl)-N-(4-(1-ethyl-4-(trifluoromethyl)-1H-imidazol-2-yl)phenyl)-5,6,7,8-tetrahydro-[1,2,4]triazolo[1,5-α]pyridin-8-amine]	100 to 500
CCn1cc(C(F)(F)F)nc1-c1ccc(N(C)C2CCCn3nc(-c4c(Cl)cnn4C(C)C)nc32)cc1 (stereo not drawn) [Example 260]	100 to 500
CCn1cc(C(F)(F)F)nc1-c1ccc(NC2CCCn3nc(-c4ccnn4C(C)C)c(Cl)c32)cc1F (stereo not drawn) [Example 269, 3-chloro-N-(4-(1-ethyl-4-(trifluoromethyl)-1H-imidazol-2-yl)-3-fluorophenyl)-2-(1-isopropyl-1H-pyrazol-5-yl)-4,5,6,7-tetrahydropyrazolo[1,5-α]pyridin-4-amine]	> 500

Results, then the compound that gave them:

IC50 [nM]	Structure (SMILES)
100 to 500	COc1ncnc(C2(C)CC2)c1-c1cc2n(n1)CCC(=O)N2Cc1ccc(-c2nc(C(F)(F)F)cn2C)c(F)c1 [Example 149, 4-(3-fluoro-4-(1-methyl-4-(trifluoromethyl)-1H-imidazol-2-yl)benzyl)-2-(4-methoxy-6-(1-methylcyclopropyl)pyrimidin-5-yl)-6,7-dihydropyrazolo[1,5-α]pyrimidin-5(4H)-one]
100 to 500	CCn1cc(C(F)(F)F)nc1-c1ccc(CN2C(=O)CCn3nc(-c4c(Cl)cnn4C4CCOC4)cc32)cc1 (stereo not drawn) [Example 150]
100 to 500	CCn1cc(C(F)(F)F)nc1-c1ccc(CN2C(=O)CCn3nc(-c4c(C(C)(C)C)cnn4C)cc32)cc1 [Example 157]
> 500	CCn1cc(C(F)(F)F)nc1-c1ccc(CN2C(=O)CCn3nc(-c4c(C(C)C)cnn4C)cc32)cc1 [Example 158]
100 to 500	CCn1cc(C(F)(F)F)nc1-c1ccc(CN2C(=O)CCn3nc(-c4c(OC)ncnc4C4CC4)nc32)cc1OC(F)F [Example 192]
< 100	COc1ncnc(C2CC2)c1-c1nc2n(n1)CCC(=O)N2C(C)c1ccc(-n2nc(C(F)(F)F)cc2OCC(F)F)cc1 (stereo not drawn) [Example 214]
100 to 500	CC(c1ccc(-n2nc(C(F)(F)F)cc2OCC(F)F)cc1)N1C(=O)CCn2nc(-c3c(Cl)cnn3C(C)C)nc21 (stereo not drawn) [Example 215]
100 to 500	COc1ncnc(C2CC2)c1-c1nc2n(n1)CCC(=O)N2C(C)c1ccc(-c2nc(C(F)(F)F)cn2C(C)C)c(F)c1OC (stereo not drawn) [Example 218]
< 100	COc1ncnc(C2CC2)c1-c1nc2n(n1)CCC(=O)N2C(C)c1ccc(-c2ncccc2N(C)C)cc1 (stereo not drawn) [Example 219]
< 100	COc1ncnc(C2CC2)c1-c1nc2n(n1)CCC(=O)N2C(C)c1ccc(-c2ncccc2OC(C)C)cc1 (stereo not drawn) [Example 220]
100 to 500	CC(C)n1cc(C(F)(F)F)nc1-c1ccc(CN2C(=O)CCn3nc(-c4c(Cl)cnn4C(C)C)nc32)cc1OCCO [Example 228, 2-(4-chloro-1-isopropyl-1H-pyrazol-5-yl)-4-(3-(2-hydroxyethoxy)-4-(1-isopropyl-4-(trifluoromethyl)-1H-imidazol-2-yl)benzyl)-6,7-dihydro-[1,2,4]triazolo[1,5-α]pyrimidin-5(4H)-one]
100 to 500	CCn1cc(C(F)(F)F)nc1-c1ccc(CN2C(=O)CCn3nc(-c4c(Cl)cnn4C(C)C)c(N)c32)cc1 [Example 229, 3-amino-2-(4-chloro-1-isopropyl-1H-pyrazol-5-yl)-4-(4-(1-ethyl-4-(trifluoromethyl)-1H-imidazol-2-yl)benzyl)-6,7-dihydropyrazolo[1,5-α]pyrimidin-5(4H)-one]
100 to 500	CCn1cc(C(F)(F)F)nc1-c1ccc(CN2C(=O)C(NC(C)=O)Cn3nc(-c4c(Cl)cnn4C(C)C)cc32)cc1 (stereo not drawn) [Example 234, N-(2-(4-chloro-1-isopropyl-1H-pyrazol-5-yl)-4-(4-(1-ethyl-4-(trifluoromethyl)-1H-imidazol-2-yl)benzyl)-5-oxo-4,5,6,7-tetrahydropyrazolo[1,5-α]pyrimidin-6-yl)acetamide]
100 to 500	CCn1cc(C(F)(F)F)nc1-c1ccc(N(C)C2CCCn3nc(-c4c(Cl)cnn4C(C)C)nc32)cc1F (stereo not drawn) [Example 259]
> 500	CCn1cc(C(F)(F)F)nc1-c1ccc(CN2C(=O)CCn3nc(-c4ccnn4C(C)C)c(Cl)c32)cc1 [Example 268, 3-chloro-4-(4-(1-ethyl-4-(trifluoromethyl)-1H-imidazol-2-yl)benzyl)-2-(1-isopropyl-1H-pyrazol-5-yl)-6,7-dihydropyrazolo[1,5-α]pyrimidin-5(4H)-one]
